Measurements: ChEMBL document CHEMBL3992552, “Mechanisms of action and structure-activity relationships of cytotoxic flavokawain derivatives” (Bioorg Med Chem, 2017)
pIC50: −log10 of the molar value. Calls of active or inactive are those of the source. The rule behind the calls is not given here.

How the values were obtained:
[1] = test system: NCI-H727; assay: Cell cycle arrest in human NCI-H727 cells harboring p53 mutant assessed as mitotic index at 10 uM measured after 48 hrs by Hoechst staining based fluorescence assay (reference value: 1.1); format: functional
[2] = test system: HaCaT; assay: Cytotoxicity against human HaCaT cells assessed as cell viability after 48 hrs by Hoechst 33342 staining based assay; format: functional
[3] = test system: NCI-H727; assay: Cytotoxicity against human NCI-H727 cells assessed as cell viability after 48 hrs by Hoechst 33342 staining based assay; format: functional; conditions: NCI-H727, 48 h
[4] = test system: HCT-116; assay: Cell cycle arrest in human HCT116 cells harboring wild-type p53 assessed as accumulation at S phase at 25 uM measured after 48 hrs by Hoechst/BrdU staining based fluorescence assay (reference value: 68.4%); format: functional
[5] = test system: HCT-116; assay: Cell cycle arrest in human HCT116 cells harboring wild-type p53 assessed as accumulation at M phase at 25 uM measured after 48 hrs by Hoechst staining based fluorescence assay (reference value: 2.3 to […]); format: functional
[6] = test system: Huh-7; assay: Cytotoxicity against human HuH7 cells assessed as cell viability after 48 hrs by Hoechst 33342 staining based assay; format: functional; conditions: Huh-7, 48 h
[7] = test system: NCI-H727; assay: Cell cycle arrest in human NCI-H727 cells harboring p53 mutant assessed as accumulation at S phase at 25 uM measured after 48 hrs by Hoechst/BrdU staining based fluorescence assay (reference value: 40.3%); format: functional
[8] = test system: MDA-MB-231; assay: Cell cycle arrest in human MDA-MB-231 cells harboring p53 mutant assessed as accumulation at S phase at 25 uM measured after 48 hrs by Hoechst/BrdU staining based fluorescence assay (reference value: 42.2%); format: functional
[9] = test system: Huh-7; assay: Cell cycle arrest in human HuH7 cells assessed as accumulation at S phase at 10 uM measured after 48 hrs by Hoechst/BrdU staining based fluorescence assay (reference value: 44%); format: functional
[10] = test system: Fibroblast; assay: Cytotoxicity against human fibroblasts assessed as cell viability after 48 hrs by Hoechst 33342 staining based assay
[11] = test system: HaCaT; assay: Cell cycle arrest in human HaCaT cells harboring […] p53 assessed as accumulation at S phase at 25 uM measured after 48 hrs by Hoechst/BrdU staining based fluorescence assay (reference value: 52.3%); format: functional
[12] = test system: HCT-116; assay: Cell cycle arrest in human HCT116 cells assessed as accumulation at G1/S phase by Hoechst staining based fluorescence assay; format: functional
[13] = test system: MDA-MB-231; assay: Cell cycle arrest in human MDA-MB-231 cells harboring p53 mutant assessed as accumulation at S phase at 10 uM measured after 48 hrs by Hoechst/BrdU staining based fluorescence assay (reference value: 42.2%); format: functional
[14] = test system: HCT-116; assay: Cell cycle arrest in human HCT116 cells harboring wild-type p53 assessed as accumulation at S phase at 50 uM measured after 48 hrs by Hoechst/BrdU staining based fluorescence assay (reference value: 68%); format: functional
[15] = test system: PC-3; assay: Cell cycle arrest in human PC3 cells assessed as accumulation at G2/M phase by Hoechst staining based fluorescence assay; format: functional
[16] = test system: MDA-MB-231; assay: Cytotoxicity against human MDA-MB-231 cells assessed as cell viability after 48 hrs by Hoechst 33342 staining based assay; format: functional; conditions: MDA-MB-231, 48 h
[17] = test system: HCT-116; assay: Cell cycle arrest in human HCT116 cells harboring wild-type p53 assessed as accumulation at M phase at 50 uM measured after 48 hrs by Hoechst staining based fluorescence assay (reference value: 2.3 to […]); format: functional
[18] = test system: NCI-H727; assay: Cell cycle arrest in human NCI-H727 cells harboring p53 mutant assessed as accumulation at S phase at 10 uM measured after 48 hrs by Hoechst/BrdU staining based fluorescence assay (reference value: 40.3%); format: functional
[19] = test system: HCT-116; assay: Cell cycle arrest in human HCT116 cells harboring wild-type p53 assessed as accumulation at S phase at 25 uM measured after 48 hrs by Hoechst/BrdU staining based fluorescence assay (reference value: 68%); format: functional
[20] = test system: HaCaT; assay: Cell cycle arrest in human HaCaT cells harboring […] p53 assessed as accumulation at S phase at 10 uM measured after 48 hrs by Hoechst/BrdU staining based fluorescence assay (reference value: 52.3%); format: functional
[21] = test system: HaCaT; assay: Cell cycle arrest in human HaCaT cells assessed as accumulation at G1/S phase by Hoechst staining based fluorescence assay; format: functional
[22] = test system: MCF7; assay: Cytotoxicity against human MCF7 assessed as cell viability after 48 hrs by Hoechst 33342 staining based assay; format: functional; conditions: MCF7, 48 h
[23] = test system: PC-3; assay: Cell cycle arrest in human PC3 cells harboring p53 mutant assessed as accumulation at S phase at 10 uM measured after 48 hrs by Hoechst/BrdU staining based fluorescence assay (reference value: 40.8%); format: functional
[24] = test system: HCT-116; assay: Cell cycle arrest in human HCT116 cells harboring wild-type p53 assessed as accumulation at S phase at 10 uM measured after 48 hrs by Hoechst/BrdU staining based fluorescence assay (reference value: 68.4%); format: functional
[25] = test system: PC-3; assay: Cytotoxicity against human PC3 cells assessed as cell viability after 48 hrs by Hoechst 33342 staining based assay; format: functional; conditions: PC-3, 48 h
[26] = test system: NCI-H727; assay: Cell cycle arrest in human NCI-H727 cells harboring p53 mutant assessed as mitotic index at 25 uM measured after 48 hrs by Hoechst staining based fluorescence assay (reference value: 1.1); format: functional
[27] = test system: MDA-MB-231; assay: Cell cycle arrest in human MDA-MB-231 cells assessed as accumulation at G1/S phase by Hoechst staining based fluorescence assay; format: functional
[28] = test system: PC-3; assay: Cell cycle arrest in human PC3 cells harboring p53 mutant assessed as accumulation at S phase at 25 uM measured after 48 hrs by Hoechst/BrdU staining based fluorescence assay (reference value: 40.8%); format: functional
[29] = test system: Huh-7; assay: Cell cycle arrest in human HuH7 cells assessed as accumulation at G1/S phase by Hoechst staining based fluorescence assay; format: functional
[30] = test system: RL; assay: Cytotoxicity against human RL assessed as cell viability after 48 hrs by Hoechst 33342 staining based assay; format: functional
[31] = test system: Huh-7; assay: Cell cycle arrest in human HuH7 cells assessed as accumulation at S phase at 25 uM measured after 48 hrs by Hoechst/BrdU staining based fluorescence assay (reference value: 44%); format: functional
[32] = test system: MDA-MB-231; assay: Cell cycle arrest in human MDA-MB-231 cells harboring p53 mutant assessed as mitotic index at 25 uM measured after 48 hrs by Hoechst staining based fluorescence assay (reference value: 2.1); format: functional
[33] = test system: PC-3; assay: Cell cycle arrest in human PC3 cells harboring p53 mutant assessed as mitotic index at 10 uM measured after 48 hrs by Hoechst staining based fluorescence assay (reference value: 2.5); format: functional
[34] = test system: HaCaT; assay: Cell cycle arrest in human HaCaT cells harboring […] p53 assessed as mitotic index at 10 uM measured after 48 hrs by Hoechst staining based fluorescence assay (reference value: 2.6); format: functional
[35] = test system: HCT-116; assay: Cytotoxicity against human HCT116 cells assessed as cell viability after 48 hrs by Hoechst 33342 staining based assay; format: functional; conditions: HCT-116, 48 h
[36] = test system: Caco-2; assay: Cell cycle arrest in human Caco2 cells assessed as mitotic index at 10 uM measured after 48 hrs by Hoechst staining based fluorescence assay (reference value: 3.6); format: functional
[37] = Selectivity index, ratio of IC50 for human fibroblasts to IC50 for human PC3 cells
[38] = test system: Caco-2; assay: Cytotoxicity against human Caco2 cells assessed as cell viability after 48 hrs by Hoechst 33342 staining based assay; format: functional; conditions: Caco-2, 48 h
[39] = test system: Caco-2; assay: Cell cycle arrest in human Caco2 cells assessed as accumulation at S phase at 10 uM measured after 48 hrs by Hoechst/BrdU staining based fluorescence assay (reference value: […]); format: functional
[40] = test system: MDA-MB-231; assay: Cell cycle arrest in human MDA-MB-231 cells harboring p53 mutant assessed as mitotic index at 10 uM measured after 48 hrs by Hoechst staining based fluorescence assay (reference value: 2.1); format: functional
[41] = test system: Huh-7; assay: Cell cycle arrest in human HuH7 cells assessed as mitotic index at 25 uM measured after 48 hrs by Hoechst staining based fluorescence assay (reference value: 2.2); format: functional
[42] = Selectivity index, ratio of IC50 for human fibroblasts to IC50 for human RL cells
[43] = test system: HCT-116; assay: Cell cycle arrest in human HCT116 cells assessed as accumulation at G2/M phase by Hoechst staining based fluorescence assay; format: functional
[44] = test system: Huh-7; assay: Cell cycle arrest in human HuH7 cells assessed as mitotic index at 10 uM measured after 48 hrs by Hoechst staining based fluorescence assay (reference value: 2.2); format: functional
[45] = test system: HCT-116; assay: Cell cycle arrest in human HCT116 cells harboring wild-type p53 assessed as mitotic index at 25 uM measured after 48 hrs by Hoechst staining based fluorescence assay (reference value: 2.3); format: functional
[46] = Selectivity index, ratio of IC50 for human fibroblasts to IC50 for human MCF7 cells
[47] = test system: PC-3; assay: Cell cycle arrest in human PC3 cells assessed as accumulation at G1/S phase by Hoechst staining based fluorescence assay; format: functional
[48] = test system: HaCaT; assay: Cell cycle arrest in human HaCaT cells harboring […] p53 assessed as mitotic index at 25 uM measured after 48 hrs by Hoechst staining based fluorescence assay (reference value: 2.6); format: functional
[49] = test system: HCT-116; assay: Cell cycle arrest in human HCT116 cells harboring wild-type p53 assessed as mitotic index at 10 uM measured after 48 hrs by Hoechst staining based fluorescence assay (reference value: 2.3); format: functional
[50] = Selectivity index, ratio of IC50 for human fibroblasts to IC50 for human HCT116 cells
[51] = test system: PC-3; assay: Cell cycle arrest in human PC3 cells harboring p53 mutant assessed as mitotic index at 25 uM measured after 48 hrs by Hoechst staining based fluorescence assay (reference value: 2.5); format: functional
[52] = test system: Caco-2; assay: Cell cycle arrest in human Caco2 cells assessed as mitotic index at 25 uM measured after 48 hrs by Hoechst staining based fluorescence assay (reference value: 3.6); format: functional
[53] = test system: Caco-2; assay: Cell cycle arrest in human Caco2 cells assessed as accumulation at S phase at 25 uM measured after 48 hrs by Hoechst/BrdU staining based fluorescence assay (reference value: […]); format: functional
[54] = Selectivity index, ratio of IC50 for human fibroblasts to IC50 for human HaCaT cells
[55] = Selectivity index, ratio of IC50 for human fibroblasts to IC50 for human Caco2 cells

## CC[C@H](CO)Nc1nc(NCc2ccccc2)c2ncn(C(C)C)c2n1 [SELICICLIB]
[1]
  Activity: inactive
[2]
  pIC50: 4.78
[3]
  pIC50: < 4.70
[4]
  Activity: 17%
[5]
  Activity: 1.2%
[6]
  pIC50: 4.81
[7]
  Activity: inactive
[8]
  Activity: 25%
[9]
  Activity: 16%
[10]
  pIC50: < 4.70
[11]
  Activity: 3%
[12]
  Activity: Active
[13]
  Activity: 27%
[14]
  Activity: 17%
[15]
  Activity: Active
[16]
  pIC50: 4.77
[17]
  Activity: 0.6%
[18]
  Activity: inactive
[19]
  Activity: 25%
[20]
  Activity: 26%
[21]
  Activity: Active
[22]
  pIC50: 4.99
[23]
  Activity: 17%
[24]
  Activity: 25%
[25]
  pIC50: 4.78
[26]
  Activity: inactive
[27]
  Activity: Active
[28]
  Activity: 38%
[29]
  Activity: Active
[30]
  pIC50: 6.05
[31]
  Activity: 9%

## Oc1cccc(-c2nc(N3CCOCC3)c3oc4ncccc4c3n2)c1 [PI-103]
[1]
  Activity: inactive
[2]
  pIC50: 5.46
[32]
  Activity: inactive
[3]
  pIC50: < 4.70
[33]
  Activity_index: 0.4
[4]
  Activity: 63%
[34]
  Activity_index: 0.9
[35]
  pIC50: 5.41
[6]
  pIC50: < 4.70
[36]
  Activity_index: 1.4
[7]
  Activity: inactive
[37]
  Ratio IC50: >3.3
[38]
  pIC50: 5.70
[8]
  Activity: inactive
[39]
  Activity: 28%
[9]
  Activity: inactive
[10]
  pIC50: < 4.70
[40]
  Activity: inactive
[11]
  Activity: 12%
[41]
  Activity: inactive
[13]
  Activity: inactive
[42]
  Ratio IC50: >8.6
[43]
  Activity: Active
[16]
  pIC50: < 4.70
[18]
  Activity: inactive
[20]
  Activity: 20%
[44]
  Activity: inactive
[45]
  Activity_index: 1.8
[46]
  Ratio IC50: >1.9
[21]
  Activity: Active
[22]
  pIC50: 4.88
[47]
  Activity: Active
[23]
  Activity: 6%
[24]
  Activity: 63%
[48]
  Activity_index: 0.5
[25]
  pIC50: 5.12
[26]
  Activity: inactive
[49]
  Activity_index: 1.9
[50]
  Ratio IC50: >6.4
[28]
  Activity: 1.2%
[51]
  Activity_index: 0.1
[52]
  Activity_index: 0.9
[53]
  Activity: 20%
[30]
  pIC50: 5.54
[54]
  Ratio IC50: >7.1
[55]
  Ratio IC50: >12.5
[31]
  Activity: inactive
